Test results reported in article PMC2923838 (Chemical research in toxicology, 2009).

Target: D-amino acid oxidase (DAAO) (Sus scrofa, UniProt P00371)
Assay: […] benzoate with porcine DAAO and D-Trp in […] cells
Assay type: cell-based
Conditions: read-out: % attenuation at 20 mM

Chain of D-amino acid oxidase (DAAO) (P00371 whole entry): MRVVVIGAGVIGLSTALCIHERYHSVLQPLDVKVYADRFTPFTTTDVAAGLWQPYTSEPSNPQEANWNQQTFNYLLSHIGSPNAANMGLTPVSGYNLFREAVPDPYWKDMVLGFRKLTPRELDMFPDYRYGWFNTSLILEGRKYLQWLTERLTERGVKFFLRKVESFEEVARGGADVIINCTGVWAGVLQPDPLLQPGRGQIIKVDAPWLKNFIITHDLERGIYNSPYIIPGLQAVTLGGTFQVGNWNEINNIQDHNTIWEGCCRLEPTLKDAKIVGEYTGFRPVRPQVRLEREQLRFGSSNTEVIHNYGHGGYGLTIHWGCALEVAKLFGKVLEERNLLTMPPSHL

For `O=C(O)c1ccccc1` [sodium benzoate], the inhibition at 20000 µM was 76%.
